In article PMC8653662, “Cytotoxicity and Immunogenicity Evaluation of Synthetic Cell-penetrating Peptides for Methotrexate Delivery” (Iranian Journal of Pharmaceutical Research : IJPR, 2021):
Ends that are not written are not given here. MTX = methotrexate

What was measured:
Raji cells = experiment: MTT cell viability assay; type: cell-based, Human; conditions: for cytotoxicity of CPPs: 5, 10, 25 and 50 μM, 24, 48 and 72 h, 570 nm, mean of three independent experiments in duplicate
Description: Human lymphoma cell line (Raji) was cultured in 75 cm^2 cell culture flasks containing RPMI 1640 medium (Gibco), which was supplemented with 10% FBS, 2 mM L-glutamine, 100 units/mL penicillin, and 100 µg/mL streptomycin ([29]). The cell culture was carried out in a humidified atmosphere of 5% CO2, 95% air, and 37 °C. The cell viability of CPPs and peptide-MTX conjugates was determined by MTT assay in Raji cells. […] […] The cell viability was determined by measuring the amount of MTT transformed to formazan salt using an ELISA reader at 570 nm (Bioteck Instruments, Winooski, VT, USA). The results were the means of three independent experiments performed in duplicate.

[1] = Zetasizer hydrodynamic size distribution and zeta potential; type: physicochemical; conditions: Zetasizer Nano ZS, distilled water pH 7.4, 25 °C, repeated three times
Description: The size and morphology of NGRWR peptide and NGRWR-E8 nanoparticles (as representatives) were examined by scanning electron microscopy (SEM, Mira3 FEG-SEM Tescan 5.0 kV). Samples were prepared by drop-casting of a 5 mM aqueous solution (20 µL) onto the mica surface. Then, they were lyophilized, coated with gold, and analyzed with a […] of SEM. Zetasizer Nano ZS (Malvern Instruments, Worcestershire, UK) was employed to examine the mean hydrodynamic diameter, size distribution, and zeta potential of NGRWR peptide and NGRWR-E8 nanoparticles. To this end, the samples were diluted in distilled water (pH 7.4), and the experiment was repeated three times per sample at 25 °C.

TNF-α = type: cell-based, Human; conditions: Raji cells; LPS 10 μg/mL; 48 h; positive control
Description: (§1) As a positive control, cells were incubated with 10 μg/mL of lipopolysaccharide (LPS) to induce IL-6 and TNF-α release. Then, the supernatant was collected and IL-6 and TNF-α secretion was evaluated using standard ELISA kits.

IL-6 = type: cell-based, Human; conditions: Raji cells; LPS 10 μg/mL; 48 h; positive control
Description: as §1

WKWKWKWK [[WK]4, linear cell-penetrating peptide WKWKWKWK]
cytotoxicity of CPPs (Raji cells): no significant cytotoxicity

WWWWRRRR [W4R4, linear cell-penetrating peptide WWWWRRRR]
cytotoxicity of CPPs (Raji cells): no significant cytotoxicity

NGRWRWRWR [linear cell-penetrating peptide …]
cytotoxicity of CPPs (Raji cells): no significant cytotoxicity | size distribution, population of 16% of particles [1]: 50 nm | size distribution, population of 20% of particles [1]: 37 nm | size distribution, population of 21% of particles [1]: 50-250 nm | size distribution, population of 43% of particles [1]: 26 nm | zeta potential [1]: +11 mV

WRNGRWR-MTX (WRNGRWR-{MTX})
cytotoxic effect of peptide-MTX conjugates (Raji cells; 25 nM MTX, 48 h after treatment): no significant cytotoxic effect

WRWRWRNGR [linear cell-penetrating peptide …]
cytotoxicity of CPPs (Raji cells): no significant cytotoxicity

WRWNGRWRW [WRNGRWR, linear cell-penetrating peptide …]
cytotoxicity of CPPs (Raji cells): no significant cytotoxicity

RRRRRR [R6, linear polyarginine peptide RRRRRR]
cytotoxicity of CPPs (Raji cells): no significant cytotoxicity

lipopolysaccharide [LPS]
TNF-α level enhancement over the control group (TNF-α): 100 times | IL-6 level enhancement over the control group (IL-6): 100 times

WWWWKKKK [W4K4, linear cell-penetrating peptide WWWWKKKK]
cytotoxicity of CPPs (Raji cells): no significant cytotoxicity

WRWRWRWR [[WR]4, linear cell-penetrating peptide WRWRWRWR]
cell viability (Raji cells; 5 μM peptide, 24 h): 40%
